Source: PMC10550967, “Structure of the ceramide-bound SPOTS complex” (Nature Communications, 2023)

What was measured:
[1] = target: T1, SPOTS complex (monomeric, with Sac1) (Saccharomyces cerevisiae, UniProt P25045+P40970+P53224, P53224:S51A/P53224:S52A/P53224:S53A); assay: colorimetric CoA release assay; format: biochemical; conditions: 30 µM PLP, 0.008% GDN, pH 6.8, RT, 1 h, FLAG-purified complex (mixture of SPOT and SPOTS), catalytic site Lcb1/Lcb2
T1 construct: gene LCB1; co-overexpressed in S. cerevisiae (GAL1 promoter); 3xFLAG inserted between codons 9 and 10 of LCB1, kept; GDN-solubilised; monomeric 1:1:1:1:1; Site chains differ by ligand (see pair conditions); The purified sample also holds Sac1-free SPOT monomer and dimer; with Serine palmitoyltransferase-regulating protein TSC3; Phosphoinositide phosphatase SAC1
T1 sequence (P25045 whole entry, one chain of several): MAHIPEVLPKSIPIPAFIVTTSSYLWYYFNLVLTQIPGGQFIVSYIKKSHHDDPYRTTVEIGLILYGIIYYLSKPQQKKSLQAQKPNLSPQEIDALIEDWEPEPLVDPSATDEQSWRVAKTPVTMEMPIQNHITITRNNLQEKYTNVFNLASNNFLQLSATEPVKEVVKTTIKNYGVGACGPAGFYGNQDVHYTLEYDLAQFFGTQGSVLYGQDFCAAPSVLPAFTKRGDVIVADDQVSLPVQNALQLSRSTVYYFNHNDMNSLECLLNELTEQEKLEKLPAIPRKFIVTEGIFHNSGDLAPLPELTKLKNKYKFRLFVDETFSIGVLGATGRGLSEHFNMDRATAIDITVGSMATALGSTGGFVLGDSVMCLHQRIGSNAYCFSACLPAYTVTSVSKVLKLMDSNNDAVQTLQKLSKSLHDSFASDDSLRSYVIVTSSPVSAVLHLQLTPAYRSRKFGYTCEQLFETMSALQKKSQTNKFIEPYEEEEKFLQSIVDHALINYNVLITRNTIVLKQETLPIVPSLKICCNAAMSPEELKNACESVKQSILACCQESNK
T1 sequence (P53224 whole entry S51A/S52A/S53A, one chain of several): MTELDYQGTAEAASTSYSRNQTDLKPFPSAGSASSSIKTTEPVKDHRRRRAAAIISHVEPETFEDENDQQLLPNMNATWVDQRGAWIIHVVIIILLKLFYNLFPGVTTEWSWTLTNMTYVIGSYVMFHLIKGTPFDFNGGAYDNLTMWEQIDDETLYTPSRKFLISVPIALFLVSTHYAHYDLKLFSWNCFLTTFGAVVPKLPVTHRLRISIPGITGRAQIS
T1 sequence (Q3E790 whole entry partner, one chain of several): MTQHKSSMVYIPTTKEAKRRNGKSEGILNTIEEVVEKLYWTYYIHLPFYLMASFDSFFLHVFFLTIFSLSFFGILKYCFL
T1 sequence (P32368 whole entry partner, one chain of several): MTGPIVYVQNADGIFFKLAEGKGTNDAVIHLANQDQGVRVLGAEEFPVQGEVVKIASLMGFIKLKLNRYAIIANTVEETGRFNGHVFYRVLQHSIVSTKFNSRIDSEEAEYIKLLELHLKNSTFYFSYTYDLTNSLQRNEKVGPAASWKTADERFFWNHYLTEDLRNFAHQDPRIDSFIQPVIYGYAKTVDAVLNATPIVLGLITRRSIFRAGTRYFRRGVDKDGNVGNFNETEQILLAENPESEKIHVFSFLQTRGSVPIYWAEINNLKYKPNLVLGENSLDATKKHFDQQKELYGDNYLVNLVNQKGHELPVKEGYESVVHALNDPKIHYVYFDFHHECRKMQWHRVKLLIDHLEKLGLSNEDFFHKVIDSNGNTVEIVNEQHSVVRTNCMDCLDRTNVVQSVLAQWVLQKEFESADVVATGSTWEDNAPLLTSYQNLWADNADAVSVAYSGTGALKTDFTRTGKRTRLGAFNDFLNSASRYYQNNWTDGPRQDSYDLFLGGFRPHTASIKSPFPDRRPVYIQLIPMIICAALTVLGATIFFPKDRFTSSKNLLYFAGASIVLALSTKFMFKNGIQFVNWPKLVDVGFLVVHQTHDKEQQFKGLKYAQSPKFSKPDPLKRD

[2] = target: T2, SPOT complex (monomer) (Saccharomyces cerevisiae, UniProt P25045+P40970+P53224, P53224:S51A/P53224:S52A/P53224:S53A); assay: cryo-EM structure, […] Å; format: binding; conditions: site: pocket of Lcb1 TM0a helix and Orm1 TM4, three molecules; co-purified endogenous lipid
T2 construct: gene LCB1; same preparation as P1, cryo-EM class without Sac1; monomeric; 3xFLAG inserted between codons 9 and 10 of LCB1; GDN-solubilised; Site chains differ by ligand (see pair conditions); with Serine palmitoyltransferase-regulating protein TSC3
T2 sequence (P25045 whole entry, one chain of several): as the sequence (P25045 whole entry, one chain of several) above
T2 sequence (P53224 whole entry S51A/S52A/S53A, one chain of several): as the sequence (P53224 whole entry S51A/S52A/S53A, one chain of several) above
T2 sequence (Q3E790 whole entry partner, one chain of several): as the sequence (Q3E790 whole entry partner, one chain of several) above

[3] = target: T1, SPOTS complex (monomeric, with Sac1); assay: cryo-EM structure, […] Å; coupled enzymatic assay of bound sterol; format: binding; conditions: site: pocket of Lcb1 TM0a helix and Orm1 TM4, three molecules; co-purified endogenous lipid
[4] = target: the molecule itself; assay: cryo-EM structure; single-particle cryo-EM of the FLAG-purified complex in GDN, 10 mg/ml; one dataset gave a C2 symmetric SPOT dimer, a SPOT monomer and a SPOTS monomer with Sac1

Q: With `N[C@@H](CO)C(=O)O` [L-serine] as the molecule, how does the “colorimetric CoA release assay” value ([1]; 100 µM palmitoyl-CoA) read?
A: release of CoA-SH from the SPT-catalyzed condensation of palmitoyl-CoA and L-serine

Q: `CCCCCCCCCCCCCCCC(=O)SCCNC(=O)CCNC(=O)[C@H](O)C(C)(C)COP(=O)(O)OP(=O)(O)OC[C@H]1O[C@@H](n2cnc3c(N)ncnc32)[C@H](O)[C@@H]1OP(=O)(O)O` [palmitoyl-CoA] was tested. Which “colorimetric CoA release assay” value ([1]; 15 mM L-serine) did it give?
A: release of CoA-SH from the SPT-catalyzed condensation of palmitoyl-CoA and L-serine

Q: What does the source list for `CC(C)[C@@H](C)/C=C/[C@@H](C)[C@H]1CC[C@H]2C3=CC=C4C[C@@H](O)CC[C@]4(C)[C@H]3CC[C@]12C` [ergosterol]?
A: cryo-EM structure, 3.4 Å [2]: in which three structurally well-resolved ergosterol molecules are positioned; cryo-EM structure, 3.3 Å; coupled enzymatic assay of bound sterol [3]: Lcb1-TM0a directly interacts with three molecules of ergosterol

B1: Lcb2 (enzyme, S. cerevisiae)
chain: MSTPANYTRVPLCEPEELPDDIQKENEYGTLDSPGHLYQVKSRHGKPLPEPVVDTPPYYISLLTYLNYLILIILGHVHDFLGMTFQKNKHLDLLEHDGLAPWFSNFESFYVRRIKMRIDDCFSRPTTGVPGRFIRCIDRISHNINEYFTYSGAVYPCMNLSSYNYLGFAQSKGQCTDAALESVDKYSIQSGGPRAQIGTTDLHIKAEKLVARFIGKEDALVFSMGYGTNANLFNAFLDKKCLVISDELNHTSIRTGVRLSGAAVRTFKHGDMVGLEKLIREQIVLGQPKTNRPWKKILICAEGLFSMEGTLCNLPKLVELKKKYKCYLFIDEAHSIGAMGPTGRGVCEIFGVDPKDVDILMGTFTKSFGAAGGYIAADQWIIDRLRLDLTTVSYSESMPAPVLAQTISSLQTISGEICPGQGTERLQRIAFNSRYLRLALQRLGFIVYGVADSPVIPLLLYCPSKMPAFSRMMLQRRIAVVVVAYPATPLIESRVRFCMSASLTKEDIDYLLRHVSEVGDKLNLKSNSGKSSYDGKRQRWDIEEVIRRTPEDCKDDKYFVN
modifications: PLP forms an internal aldimine with K366
notes: Lcb2, catalytic subunit of serine palmitoyltransferase, S. cerevisiae; also called SPT subunit; source: S. cerevisiae, co-expressed with the other SPOTS subunits under the GAL1 promoter
Q: Does B1 bind [4]?
A: binds
